Measurements as given in publication PMC4229098, “Alzheimer's Therapeutics Targeting Amyloid Beta 1–42 Oligomers I: Abeta 42 Oligomer Binding to Specific Neuronal Receptors Is Displaced by Drug Candidates That Improve Cognitive Deficits” (PLoS ONE, 2014).
Entries after “also recorded” stand apart in the source; their conditions may differ. Read-outs that look alike come from different tables or passages of the source.

Tests used:
[1] = tested on: mature primary hippocampal and cortical cultures; assay: Membrane trafficking assay (MTT formazan exocytosis); format: cell-based, rat; conditions: for Schild slope: against synthetic oligomers; for reversal of trafficking deficit caused by human patient derived Abeta: compound 0.2 µM, Abeta 1.5 pM; for effect on trafficking of compound alone: no Abeta; for activity in blocking effects of Abeta oligomers: control compounds; for Treatment duration for maximum response: Abeta preparation dosed alone;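 as to all read-outs here: mixed neuron and glia cultures from E18 Sprague-Dawley rat embryos, grown 3 weeks in 384-well plates, labeled vesicles quantified by imaging or spectrophotometry as percent of vehicle-treated wells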
[2] = tested on: C57/BL6 mice injected with Abeta oligomers; assay: Contextual fear conditioning after intrahippocampal Abeta oligomer injection; format: in vivo; conditions: 2 µM intrahippocampal; for prevention of Abeta oligomer-induced fear memory deficits: one hour prior to oligomer injection; for effect on fear memory when administered alone: without Abeta
From the text: (§1) All procedures were approved by the Institutional Animal Care and Use and Committee at Columbia University and Stanford University and were in compliance with the Office of Laboratory Animal Welfare and the Guide for the Care and Use of Laboratory Animals, Eighth Edition. Behavioral testing of wild-type, 3–4 month old, male, C57/BL6 mice, injected bilaterally into their hippocampus with Abeta oligomers and testing in the fear conditioning task was done according to published methods. Animals were anesthetized with […] Avertin prior to implantation of cannulas into the hippocampus. Testing of transgenic hAPP Swedish/London mice in the Morris water maze or fear conditioning tasks was done according to published methods, [38]. To measure brain concentration of drugs, brains were homogenized in 1 ml PBS per gram of brain tissue using a handheld homogenizer. Brain homogenate was then extracted with three volumes of ice cold methanol on ice for 15 minutes and centrifuged for 15 min. The supernates were analyzed by LC/MS/MS. Samples were compared to a calibration curve prepared in a similar manner by spiking blank control homogenate with standards prepared in DMSO and then extracted as above. At the end of all behavioral testing, animals were euthanized with CO2 followed by cervical dislocation.

[3] = tested on: neuronal synaptic puncta in hippocampal/cortical cultures; assay: Abeta binding assay, neurons (immunofluorescence of neurite puncta); set-up: species or system rat; conditions: for displacement of Abeta oligomers: 15 µM compound added 1 hour after oligomers 0.5 µM, within 1 hour; for prevention of binding of Abeta oligomers to neuronal cultures: 15 µM compound one hour prior to synthetic Abeta oligomers 0.5 µM; for EC50: single site model
sigma-2/PGRMC1 receptor = molecular target: T1, sigma-2/PGRMC1 receptor (Homo sapiens, UniProt Q5BJF2); assay: Sigma-2 radioligand binding; conditions: radioligand competition binding; read-out: Ki, binding affinity at the sigma-2/PGRMC1 receptor
T1 construct: endogenous in cells; host or cells: human Jurkat cells (membranes)
Procedure: Radioligand competition assays were performed in membranes from human Jurkat cells using 5 nM [^3H]1,3-di(2-tolyl) guanidine in the presence of 1 µM (+)-pentazocine with 10 µM haloperidol to define non-specific binding.

[4] = tested on: synaptophysin-immunopositive puncta along MAP2-labeled neurites; assay: Synapse counting assay; format: cell-based, rat; conditions: for Affects Synapse density in the absence of Aβ: Table S1
Procedure: Sprague-Dawley rats, 18 days pregnant, were euthanized by CO2 asphyxiation followed by cervical dislocation, and embryos were removed. Hippocampus and cortical tissue from the embryo brains were digested in 2.5% Trypsin (Life Technologies) to dissociate cells. Isolated cells were plated at a density of 4.6×10^4 cells per cm^2 in 384-well poly-D Lysine coated plates (Greiner) in Neurobasal Media (Life Technologies) supplemented with B27 (Life Technologies), Glutamax (Life Technologies) and antibiotics (penicillin, 50 units/ml and streptomycin 50 µg/ml, Life Technologies). Cultures were maintained at 37°C in 5% CO2 with weekly media change for 3 weeks prior to experimentation. These mixed cultures of hippocampal plus cortical neurons and glia were used for all of the in vitro experiments described.
Cultures were treated with compounds for 60 minutes prior to addition of 6 µM (maximum from trafficking dose-response curve) of synthetic Abeta 1–42 oligomers and incubated for 24 hrs. Cultures were fixed and immunofluorescently labeled and imaged as for the Abeta binding assay. The ThermoFisher/Cellomics Neuronal Profiling bioapplication was used to count synaptophysin-immunopositive puncta along MAP2-labeled neurites. The number of puncta per unit length of neurites was used to determine effects of treatments. To attain statistical power of 80% and a p value of less than 0.05 (determined using G*Power software), twenty replicate wells were treated per experiment plate and compared to control wells on the same plate and experiments were repeated four times.

Abeta 1–42 oligomers = molecular target: T2, Abeta 1–42 oligomers (Homo sapiens, UniProt P05067); assay: Oligomer-specific Abeta ELISA (direct action on oligomers); format: biochemical
T2 construct: purchased California Peptide Inc; American Peptide Company; or University of Pittsburgh Peptide Core facility 641-15; 62-0-80; host or cells: chemical synthesis
Procedure: Determination of oligomeric and monomeric concentrations of Abeta contained in a given Abeta preparation was done according to the method of LeVine. Briefly, total Abeta concentration is measured by two-site ELISA using different capture (6E10 monoclonal antibody, Covance SIG-39320) and detection (4G8- conjugated to biotin, Covance, SIG39240) antibodies and quantifyied with streptavidin-horseradish peroxidase (Millipore catalog number AP308P). Oligomerized Abeta is measured in the same samples by a single-site ELISA in which monoclonal antibodies to the same epitope are used for capture (4G8, Covance SIG-39330) and detection (4G8-biotin). The 4G8-biotin cannot bind to captured monomer because the epitope is blocked by the capture antibody, so only oligomers are detected with this configuration. The streptavidin-horseradish peroxidase therefore reports only oligomeric Abeta which has additional exposed 4G8 epitopes. Monomer concentration is calculated as the difference between total Abeta concentration and oligomer concentration.

[5] = tested on: mouse models of Alzheimer's disease; assay: Behavioral tests (behavioral efficacy summary); format: in vivo, mice; set-up: key to Measured efficacy: statistically significant improvement (+); no significant improvement (-); conditions: for Behavioral efficacy: Table S1
From the text: as §1

[6] = Brain concentration of compounds (LC/MS/MS); format: in vivo, mice; conditions: mouse, 24 h after last dose, read-out: Compound Concentration in brain
From the text: as §1

[7] = tested on: hAPP Swe/Ldn transgenic mice; assay: Contextual fear conditioning in transgenic mice; format: in vivo; conditions: 5.5 months, 9 month old males
From the text: as §1

[8] = tested on: hAPP Swe/Ldn transgenic mice; assay: Morris water maze probe trial; format: in vivo; conditions: 42 days
From the text: as §1

[9] = Rattus norvegicus, compound added 1 hr prior to Abeta oligomers, log value, read-out: Prevention Log EC50 ± SE (converted)
[10] = Rattus norvegicus, compound added 1 hr prior to synthetic Abeta oligomers, read-out: Prevention EC50
[11] = 1 mg/kg/day s.c. osmotic minipump
[12] = 10 mg/kg/day s.c. osmotic minipump
[13] = hAPP Swedish/London transgenic, subcutaneous, 1 mg/kg/day s.c. osmotic minipump
[14] = hAPP Swedish/London transgenic, subcutaneous, 10 mg/kg/day s.c. osmotic minipump
[15] = Rattus norvegicus, 1 h, compound added 1 hr after Abeta oligomers, log value, read-out: Treatment Log EC50 ± SE (converted)
[16] = Rattus norvegicus, 1 h, compound added 1 hr after synthetic Abeta oligomers, read-out: Treatment EC50
[17] = hAPP Swe/Ldn transgenic, 10 mg/kg/day once daily oral gavage
[18] = hAPP Swe/Ldn transgenic, 30 mg/kg/day once daily oral gavage
[19] = preparation dosed alone, read-out: EC50 of Abeta preparation

T1 sequence (Q5BJF2 whole entry): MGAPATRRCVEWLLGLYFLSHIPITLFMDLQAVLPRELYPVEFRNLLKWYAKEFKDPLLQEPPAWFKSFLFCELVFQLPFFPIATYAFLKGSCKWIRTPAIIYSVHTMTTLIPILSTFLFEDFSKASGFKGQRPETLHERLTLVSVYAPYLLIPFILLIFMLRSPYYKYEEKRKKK
T2 sequence (P05067 672-713): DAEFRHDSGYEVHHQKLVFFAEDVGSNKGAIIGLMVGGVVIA

CC(C)=CC(C[C@H](C)c1ccc(C)cc1)NCC(C)C (stereo partly drawn) [CT0093]
EC50 [1, 9]: 4.9 µM
EC50 [1, 10]: 4.9 µM
EC50 ([1]; Rattus norvegicus, compound added 1 hr after Abeta oligomers, log value, read-out: Treatment Log EC50 ± SE (converted)): 2 µM
EC50 ([1]; Rattus norvegicus, compound added 1 hr after synthetic Abeta oligomers, read-out: Treatment EC50): 2 µM
Schild slope [1]: 1
reversal of trafficking deficit caused by human patient derived Abeta [1]: reverse the trafficking deficit
effect on trafficking of compound alone [1]: without affecting trafficking on their own
prevention of Abeta oligomer-induced fear memory deficits [2]: completely prevented fear memory deficits
effect on fear memory when administered alone [2]: no effect on memory
displacement of Abeta oligomers [3]: 49±5%
prevention of binding of Abeta oligomers to neuronal cultures [3]: 93%±2%
IC50 ([3]; compound before oligomers, read-out: IC50, Abeta binding, prevention): 2.2 µM
EC50 ([3]; pretreatment, read-out: EC50, prevention of Abeta binding): 2.2 ± 2.4 µM
Ki (sigma-2/PGRMC1 receptor): 0.054 µM
Affects Synapse density in the absence of Aβ [4]: No
dissociation of preformed oligomers (Abeta 1–42 oligomers): not by CT0109 or CT0093
Measured efficacy [5, 11]: -
Measured efficacy [5, 12]: +
Behavioral efficacy [5]: Yes
concentration at 24 h [6, 13]: 64 nM
concentration at 24 h [6, 14]: 555 nM

C[C@H](CCc1ccc(Cl)cc1)NCc1ccc(C(F)(F)F)cc1 [CT01346]
EC50 [1, 15]: 8.71 µM
EC50 [1, 16]: 8.7 µM
EC50 [1, 9]: 9.33 µM
EC50 [1, 10]: 9.4 µM
Schild slope [1]: 1
displacement of Abeta oligomers [3]: 93±13%
prevention of binding of Abeta oligomers to neuronal cultures [3]: 93%±4%
Ki (sigma-2/PGRMC1 receptor): 0.05 µM
Affects Synapse density in the absence of Aβ [4]: No
contextual fear memory performance ([7]; 30 mg/kg/day p.o.): significantly improved fear memory performance
Measured efficacy ([5]; 10 mg/kg/day oral gavage): -
Measured efficacy ([5]; 30 mg/kg/day oral gavage): +
Behavioral efficacy [5]: Yes
spatial memory retrieval performance, transgenic animals ([8]; 30 mg/kg/day oral, eleven month-old females): significantly improves spatial memory retrieval performance
behavior of treated nontransgenic animals ([8]; 30 mg/kg/day p.o.): behaved similarly to vehicle-treated wild-type animals
concentration at 24 h [6, 17]: 54 nM
concentration at 24 h [6, 18]: 330 nM

C[C@H](CCc1ccc(Cl)c(Cl)c1)NCc1ccc(C(F)(F)F)cc1 [CT01344]
EC50 [1, 15]: 6.46 µM
EC50 [1, 16]: 7.3 µM
EC50 [1, 9]: 8.71 µM
EC50 [1, 10]: 8.7 µM
Schild slope [1]: 1
displacement of Abeta oligomers [3]: 66±14%
prevention of binding of Abeta oligomers to neuronal cultures [3]: 94%±4%
IC50 ([3]; displacement of pre-bound oligomers, read-out: IC50, Abeta binding, treatment): 3.9 µM
EC50 ([3]; read-out: EC50, displacement of pre-bound Abeta binding): 3.9 ± 1.8 µM
Ki (sigma-2/PGRMC1 receptor): 0.048 µM
restoration of synapse loss induced by Abeta ([4]; 15 µM): 100%
Affects Synapse density in the absence of Aβ [4]: No
contextual fear memory performance ([7]; 10 mg/kg/day p.o.): significantly improved fear memory performance
contextual fear memory performance ([7]; 30 mg/kg/day p.o.): significantly improved fear memory performance
Measured efficacy ([5]; 10 mg/kg/day oral gavage): +
Measured efficacy ([5]; 30 mg/kg/day oral gavage): +
Behavioral efficacy [5]: Yes
concentration at 24 h [6, 17]: 394 nM
concentration at 24 h [6, 18]: 793 nM

COc1cc(CCC(C)NCc2ccc(C(F)(F)F)cc2)ccc1O (stereo not drawn) [CT0109]
restoration of trafficking ([1]; 15 µM added 1 hr prior to synthetic Abeta oligomers 3 µM): restores trafficking to vehicle-treated levels
EC50 [1, 15]: 4.07 µM
EC50 [1, 16]: 4.1 µM
EC50 ([1]; Rattus norvegicus, Table S1, read-out: Block Aβ-induced membrane trafficking deficits EC50): 2.2 µM
EC50 [1, 9]: 3.24 µM
EC50 [1, 10]: 3.2 µM
Schild slope [1]: 1
reversal of trafficking deficit caused by human patient derived Abeta [1]: reverse the trafficking deficit
effect on trafficking of compound alone [1]: without affecting trafficking on their own; also recorded: without affecting vesicles on its own
prevention of Abeta oligomer-induced fear memory deficits [2]: completely prevented fear memory deficits
effect on fear memory when administered alone [2]: no effect on memory
displacement of Abeta oligomers [3]: 44%±3%
prevention of binding of Abeta oligomers to neuronal cultures [3]: 99%±7%
Ki (sigma-2/PGRMC1 receptor): 0.009 µM
Affects Synapse density in the absence of Aβ [4]: No
dissociation of preformed oligomers (Abeta 1–42 oligomers): not by CT0109 or CT0093
Measured efficacy [5, 11]: +
Measured efficacy [5, 12]: +
Behavioral efficacy [5]: Yes
concentration at 24 h [6, 13]: 41 nM
concentration at 24 h [6, 14]: 266 nM

C[N+](C)(C)CCCCCC[N+](C)(C)C [hexamethonium bromide, reference compound]
activity in blocking effects of Abeta oligomers [1]: only memantine was active

O[C@H]1[C@H](O)[C@@H](O)[C@H](O)[C@@H](O)[C@@H]1O [scyllo-inositol, reference compound]
activity in blocking effects of Abeta oligomers [1]: only memantine was active

semi-synthetic oligomers: Abeta 1–42 monomers incubated in size excluded rat brain homogenate, immunoprecipitated with 6E10 [reference compound]
Treatment duration for maximum response [1]: 1 h
EC50 [1, 19]: 0.0059 µM

COc1ccc(CCC(C)NC2CCCc3ccccc32)cc1 (stereo not drawn) [CT01206]
EC50 [1, 9]: 4.37 µM
EC50 [1, 10]: 4.3 µM
prevention of Abeta oligomer-induced fear memory deficits [2]: not effective
effect on fear memory when administered alone [2]: caused fear memory deficits in the absence of Abeta
Affects Synapse density in the absence of Aβ [4]: Yes
Behavioral efficacy [5]: No

CC12CC3CC(C)(C1)CC(N)(C3)C2 [memantine, reference compound]
doses weakly blocking oligomer effects ([1]; control compound vs Abeta oligomers): above 100 µM

Synthetic oligomers (low concentration): Abeta 1–42 oligomers formed at 500 nM, high molecular weight fraction from Sephadex G-75 [reference compound]
Treatment duration for maximum response [1]: 1 h
EC50 [1, 19]: 0.0027 µM

C[C@]12N[C@H](Cc3ccccc31)c1ccccc12 [MK-801, reference compound]
activity in blocking effects of Abeta oligomers [1]: only memantine was active

Oc1cccc2cccnc12 [8-OH quinoline, reference compound]
dissociation of preformed oligomers (Abeta 1–42 oligomers): dissociated
